Data: ChEMBL document CHEMBL1201862, “PubChem BioAssay data set” (2004)
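The compound was tested at five concentrations on cells cultured in 96-well plates, with a 48-hour exposure period. GI50 is the concentration that inhibits growth by half.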 The source made the active and inactive calls. Rule as the data show it: active = GI50 up to about 1.1 µM and inactive = higher.

What was measured:
Assay in all cases: growth of human tumour cells (NCI), 48 h
SK-MEL-28 = tested on: SK-MEL-28
COLO 205 = tested on: COLO 205
CAKI-1 = tested on: CAKI-1
IGROV-1 = tested on: IGROV-1
A549 = tested on: A549
HL-60 = tested on: HL-60
UO-31 = tested on: UO-31
786-0 = tested on: 786-0
Malme-3M = tested on: Malme-3M
SF-295 = tested on: SF-295
HCT-15 = tested on: HCT-15
DLD-1 = tested on: DLD-1
HT-29 = tested on: HT-29
NCI-H460 = tested on: NCI-H460
SK-MEL-5 = tested on: SK-MEL-5
ACHN = tested on: ACHN
EKVX = tested on: EKVX
TK-10 = tested on: TK-10
DU-145 = tested on: DU-145
SR = tested on: SR

SMILES	GI50 (SK-MEL-28)	GI50 (COLO 205)	GI50 (CAKI-1)	GI50 (IGROV-1)	GI50 (A549)	GI50 (HL-60)	GI50 (UO-31)	GI50 (786-0)	GI50 (Malme-3M)	GI50 (SF-295)	GI50 (HCT-15)	GI50 (DLD-1)	GI50 (HT-29)	GI50 (NCI-H460)	GI50 (SK-MEL-5)	GI50 (ACHN)	GI50 (EKVX)	GI50 (TK-10)	GI50 (DU-145)	GI50 (SR)
O=C1[C@H]2ON(c3ccccc3)C(c3ccccc3)[C@H]2C(=O)N1c1ccc(Cc2ccc(N3C(=O)[C@@H]4ON(c5ccccc5)C(c5ccccc5)[C@@H]4C3=O)cc2)cc1 (some centres not stated)	> 100 µM (inactive)	> 100 µM (inactive)	> 100 µM (inactive)	> 100 µM (inactive)	> 100 µM (inactive)	> 100 µM (inactive)	> 100 µM (inactive)	> 100 µM (inactive)	> 100 µM (inactive)	> 100 µM (inactive)	> 100 µM	> 100 µM (inactive)	> 100 µM (inactive)	> 100 µM (inactive)	> 100 µM (inactive)	> 100 µM (inactive)				
Cc1ccc(S(=O)(=O)N/N=C\c2c3ccccc3[n+](C)c3ccccc23)cc1	31.5 µM (inactive)		17.7 µM (inactive)	29.6 µM (inactive)	20.8 µM (inactive)	22 µM (inactive)	26.9 µM (inactive)	28.1 µM (inactive)	32.4 µM (inactive)	13.8 µM (inactive)	25.8 µM	38.1 µM (inactive)	19.4 µM (inactive)	19.8 µM (inactive)	29.4 µM (inactive)	41.9 µM (inactive)	54.6 µM (inactive)	48.3 µM (inactive)		
COc1ccc(CC2NCCc3c2[nH]c2ccccc32)cc1 (configuration not stated)	> 100 µM (inactive)	17.4 µM (inactive)		83 µM (inactive)	> 100 µM (inactive)	22.4 µM (inactive)	41.5 µM (inactive)	> 100 µM (inactive)		96.6 µM (inactive)	52.4 µM	> 100 µM (inactive)	28.3 µM (inactive)	35.6 µM (inactive)	40.9 µM (inactive)	66.8 µM (inactive)	> 100 µM (inactive)	> 100 µM (inactive)		
CCCCC1CCCCCCc2[nH]c(/C=C3\N=C(c4ccc[nH]4)C=C3OC)cc21 (configuration not stated)	< 0.0162 µM (active)	< 0.011 µM (active)	0.0502 µM (active)	< 0.0188 µM (active)	< 0.0139 µM (active)	< 0.01 µM (active)	0.0194 µM (active)	< 0.01 µM (active)	0.0241 µM (active)	< 0.0191 µM (active)	< 0.01 µM		< 0.01 µM (active)	< 0.01 µM (active)	0.0128 µM (active)	< 0.0111 µM (active)	< 0.0167 µM (active)	0.338 µM (active)	< 0.0109 µM (active)	< 0.01 µM (active)
COC(=O)c1cnc(Cl)cn1	53.3 µM (inactive)	> 100 µM (inactive)	17.5 µM (inactive)	29.4 µM (inactive)	> 100 µM (inactive)	32.7 µM (inactive)	20.2 µM (inactive)	> 100 µM (inactive)	50.2 µM (inactive)	> 100 µM (inactive)	17.3 µM		54.3 µM (inactive)	> 100 µM (inactive)	59.2 µM (inactive)	71 µM (inactive)	33.3 µM (inactive)	> 100 µM (inactive)	> 100 µM (inactive)	42.5 µM (inactive)
N#CC1(C#N)C2C=CC(C3CC=CC32)C1(C#N)C#N (configuration not stated)	10.9 µM (inactive)	2.07 µM (inactive)	2.08 µM (inactive)	9.33 µM (inactive)	10.7 µM (inactive)	1.12 µM (inactive)	2.17 µM (inactive)	1.79 µM (inactive)	2.79 µM (inactive)	21.5 µM (inactive)	1.98 µM		9.71 µM (inactive)	> 50 µM (inactive)	7.73 µM (inactive)	5.12 µM (inactive)	12.3 µM (inactive)	2 µM (inactive)	9.55 µM (inactive)	2.29 µM (inactive)
COc1cccc(N2C(=O)[C@H]3[C@H]4CC(C(C)(C)C)CC[C@H]4c4c([nH]c5ccccc45)[C@H]3C2=O)c1 (some centres not stated)	18.7 µM (inactive)	15.5 µM (inactive)	17.2 µM (inactive)	17.1 µM (inactive)	15.3 µM (inactive)	28 µM (inactive)	17.6 µM (inactive)	16.6 µM (inactive)	20.6 µM (inactive)	15.1 µM (inactive)	34.6 µM	22.5 µM (inactive)	21.3 µM (inactive)		18 µM (inactive)		20 µM (inactive)	15.2 µM (inactive)		
CC12NC(=C(C#N)C#N)C(C#N)=C3NC(N)=C(C#N)C(=C31)Oc1ccccc12 (configuration not stated)	> 66.7 µM (inactive)	4.71 µM (inactive)	> 29.4 µM (inactive)	4.01 µM (inactive)	17 µM (inactive)	5.74 µM (inactive)	> 100 µM (inactive)	18.5 µM (inactive)	20.6 µM (inactive)	20 µM (inactive)	28.8 µM		7.06 µM (inactive)	31 µM (inactive)	5.05 µM (inactive)	> 25 µM (inactive)	> 66.5 µM (inactive)	> 31 µM (inactive)	10.1 µM (inactive)	2.59 µM (inactive)
COc1cccc(C2c3cc4c(cc3OC(NNC(N)=O)C2C)OCO4)c1O (configuration not stated)	1.99 µM (inactive)	1.78 µM (inactive)	3.11 µM (inactive)	2.58 µM (inactive)	1.92 µM (inactive)	1.05 µM (active)	8.39 µM (inactive)	1.52 µM (inactive)	0.745 µM (active)	0.593 µM (active)	1.08 µM		1.7 µM (inactive)	0.951 µM (active)	0.345 µM (active)	3.47 µM (inactive)	8.26 µM (inactive)	9.18 µM (inactive)	4.25 µM (inactive)	1.64 µM (inactive)
CCCCCCOc1ccc(C(=O)N(C)O)cc1	40.7 µM (inactive)	14.2 µM (inactive)	15.6 µM (inactive)	11.5 µM (inactive)	12.1 µM (inactive)	4.01 µM (inactive)	9.48 µM (inactive)	12.4 µM (inactive)	14.1 µM (inactive)	9.55 µM (inactive)	4.41 µM		10.9 µM (inactive)	6.12 µM (inactive)	17.6 µM (inactive)	6.01 µM (inactive)	20.3 µM (inactive)	46.3 µM (inactive)	16.5 µM (inactive)	6.35 µM (inactive)
CC(C)OP(=O)(OC(C)C)C(C(C)C)N(C)/C(N)=N/C#N (configuration not stated)	> 100 µM (inactive)	> 100 µM (inactive)	> 100 µM (inactive)	> 100 µM (inactive)	> 100 µM (inactive)	> 100 µM (inactive)	> 100 µM (inactive)	> 10 µM (inactive)	> 100 µM (inactive)	> 100 µM (inactive)	> 100 µM		> 100 µM (inactive)	> 100 µM (inactive)	> 100 µM (inactive)	> 100 µM (inactive)	> 100 µM (inactive)	> 100 µM (inactive)	> 100 µM (inactive)	> 100 µM (inactive)
C=C1C(=O)OC2C1C(OC(=O)/C(C)=C/C)CC(O)(CCl)C1C(OC(C)=O)C=C(C)C21O (configuration not stated)	10.5 µM (inactive)	8.3 µM (inactive)	7.11 µM (inactive)	14.4 µM (inactive)	28.2 µM (inactive)	1.89 µM (inactive)	18.6 µM (inactive)	11.6 µM (inactive)	3.34 µM (inactive)	58.5 µM (inactive)	6.46 µM		16.3 µM (inactive)	20.8 µM (inactive)	14.1 µM (inactive)	8.97 µM (inactive)	9.75 µM (inactive)	13.8 µM (inactive)	15.2 µM (inactive)	3.8 µM (inactive)
COc1cc2c(cc1OC)C/C(=N\O)c1cc(OC)c(OC)cc1/C=C\2	4.6 µM (inactive)	4.91 µM (inactive)	3.61 µM (inactive)	3.37 µM (inactive)	8.38 µM (inactive)	3.03 µM (inactive)	15.9 µM (inactive)	5.52 µM (inactive)	1.48 µM (inactive)	3.74 µM (inactive)	5.31 µM		3.67 µM (inactive)	3.15 µM (inactive)	1.95 µM (inactive)	12.9 µM (inactive)	10.7 µM (inactive)	18.8 µM (inactive)	4.49 µM (inactive)	1.66 µM (inactive)
CCc1c(OC(C)=O)c2c(NC3OC(COC(C)=O)C(OC(C)=O)C(OC(C)=O)C3OC(C)=O)nc(OC)nc2oc1=O (configuration not stated)		> 100 µM (inactive)	> 100 µM (inactive)	> 100 µM (inactive)	> 100 µM (inactive)	> 100 µM (inactive)	> 100 µM (inactive)	> 100 µM (inactive)	> 100 µM (inactive)	> 100 µM (inactive)	> 100 µM	> 100 µM (inactive)	> 100 µM (inactive)	> 100 µM (inactive)	> 100 µM (inactive)	> 100 µM (inactive)	> 100 µM (inactive)	> 100 µM (inactive)		
C1CCNCC1.Oc1ncnc2[nH]cc(CN3CCCCC3)c12	> 100 µM (inactive)	73.3 µM (inactive)	> 100 µM (inactive)	> 100 µM (inactive)	> 100 µM (inactive)	19.8 µM (inactive)	85.3 µM (inactive)	22.9 µM (inactive)	64.9 µM (inactive)	> 100 µM (inactive)	> 100 µM		39.3 µM (inactive)	16 µM (inactive)	> 100 µM (inactive)	98.4 µM (inactive)	> 100 µM (inactive)	46 µM (inactive)	32.5 µM (inactive)	37.7 µM (inactive)
